Here are results for 13 compounds from US11939340B2, “CDK inhibitors and their use as pharmaceuticals” (Prelude Therapeutics Incorporated, priority 2022, dated 2024).

In one test the test system is pRB in OVCAR3 cells. In words: pRB ICW Assay in OVCAR3 Cells. The class given is cell-based. The conditions noted are these: Homo sapiens, OVCAR-3, incubated with compound for 2 hours, read-out: OVCAR3 p-RB ICW IC50. As for the experimental part: pRB ICW Assay in OVCAR3 Cells
OVCAR3 cells were maintained in RPMI (Corning, Catalog #: 10-040-CV) supplemented with 10% v/v FBS (Gibco, Catalog #: 26140-079), 1% v/v Penicillin Streptomycin (Gibco, Catalog #15140-122.) OVCAR3 cells grown at log phase were trypsinized, counted, and resuspended in fresh medium to reach a final density of 6.7e4 cells/mL and 75 μL of culture were dispensed into a 384-well plate (Falcon, cat #353962) using a Multidrop Combi dispenser (Thermo Scientific). The next day, compounds were dispensed as a 9-point, ½ log serial dilution using a Tecan digital dispenser (D300e), and cells were incubated with compound for 2 hours in a humidified incubator at 37° C. A reference compound at a final concentration of 10 μM was used as a control for maximum inhibition. Each compound was tested in duplicates for each experiment. At the end of the incubation, 25 μL of 16% paraformaldehyde (Electron Microscopy, cat #15710) was slowly added to each well and the plate was incubated at room temperature (RT) for 30 minutes to fix cells. Cells were then permeabilized by incubating with 50 μL/well of wash buffer (lx PBS with 0.1% Triton X-100) 5×5 minutes, followed by 1 hour blocking with 30 μL/well of Odyssey blocking buffer (Li—COR, cat #927-40000), at RT. Anti-phosphor RB antibody (Cell signaling 8516S) was diluted 1:1000 in Odyssey blocking buffer and 20 μL was added to all wells and incubated overnight in 4° C. with gently rocking. The next day, cells were washed 5×5 min with 50 μL/well of wash buffer, followed with 1 hour incubation with secondary antibody and DRAQ5 diluted in Odyssey blocking buffer (1:500 dilution for secondary antibody and 1:2000 dilution for DRAQ5), 5×5 min washes, and one last wash with water. Plates were dried in 37° C. oven for 5 minutes and scanned using Li—COR Odyssey CLx imaging system to acquire intensities at 700 and 800 nm channels.

The next test concerns the target CDK2/Cyclin E2 (Homo sapiens, UniProt P24941). Briefly: CDK2/CyclinE2 Enzymatic Activity Assay (TR-FRET). The class given is biochemical. The conditions noted are these: CDK2/CyclinE2 1 nM, ATP 1 mM, read-out: CDK2_El IC50. Here is the method: CDK2/CyclinE2 Enzymatic Activity Assay
The inhibitory activity of compounds was evaluated in vitro using TR-FRET assay with white 384-well low volume microplate (Greiner Bio-One). CDK2/Cyclin E2 catalyzed phosphorylation of peptide in the presence and absence of compounds was measured and used in IC50 determination. Recombinant protein complex CDK2/Cyclin E2, expressed from insect cell, was purchased from ProQinase. Testing compounds were dissolved in DMSO at 1 mM and tested in 9-dose IC50 mode. The reaction mixture was prepared by mixing CDK2/CyclinE2 (1 nM final), ULight-4E-BP1 (50 nM final, Perkinelmer, TRF0128-D), and ATP (1 mM final) in assay buffer (20 mM of HEPES pH 7.4, 1 mM of EGTA, 0.05% BSA, 0.005% Tween 20, and 1 mM TCEP). The compound of interest in DMSO was added to each well in 3-fold serial dilution by dispenser (TECAN D300E) to make a 9.9 μL of reaction mixture. After 20 minutes preincubation at room temperature, 0.1 μL MgCl2 (10 mM final) was added to initiate the reaction. Following a 45 minute incubation at 37° C., the reaction was stopped by addition of 2 μL of quenching buffer consisting of Lance detection buffer (Perkinelmer CR97-100C), LANCE Ultra Europium-anti-P-4E-BP1 (Perkinelmer, TRF0216-D), EDTA, and incubate at room temperature for additional 60 minutes in the dark. The reaction signal was measured by Envision multimode plate reader (PerkinElmer, 2102-0010). IC50 values were determined by fitting the data to the standard 4 parameters with Hill Slope using GraphPad Prism software.
Background: Time-resolved FRET reads energy transfer from a long-lived donor to a nearby acceptor.

The target in the next test is T1, CDK4/Cyclin D1 (Homo sapiens, UniProt P11802).
T1 construct: purchased ProQinase; host or cells: insect cell
T1 sequence (P11802 whole entry): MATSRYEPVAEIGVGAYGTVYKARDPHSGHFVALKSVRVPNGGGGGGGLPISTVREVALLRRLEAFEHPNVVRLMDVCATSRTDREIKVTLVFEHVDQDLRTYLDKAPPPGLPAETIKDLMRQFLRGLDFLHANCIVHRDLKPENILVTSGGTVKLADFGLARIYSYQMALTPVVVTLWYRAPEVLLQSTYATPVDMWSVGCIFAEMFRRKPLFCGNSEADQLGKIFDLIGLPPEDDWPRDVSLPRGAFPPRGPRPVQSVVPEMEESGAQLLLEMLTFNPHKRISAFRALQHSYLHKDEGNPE
T1 sequence (P24385 whole entry partner): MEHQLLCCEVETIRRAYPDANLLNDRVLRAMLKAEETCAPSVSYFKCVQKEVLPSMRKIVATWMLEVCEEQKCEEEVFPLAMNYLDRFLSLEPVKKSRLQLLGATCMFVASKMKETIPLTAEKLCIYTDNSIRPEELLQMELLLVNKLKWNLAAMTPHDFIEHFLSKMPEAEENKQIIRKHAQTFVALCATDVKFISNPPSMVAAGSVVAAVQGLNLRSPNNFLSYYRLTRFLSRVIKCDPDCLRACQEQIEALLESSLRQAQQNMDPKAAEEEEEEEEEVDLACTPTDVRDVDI
In words: CDK4/CyclinD1 Enzymatic Activity Assay (TR-FRET). The class given is biochemical. The settings on record: CDK4/CyclinD1 1 nM, ATP 2 mM, read-out: CDK4_D1 IC50. Here is the method:
CDK4/CyclinD1 Enzymatic Activity Assay
The inhibitory activity of compounds was evaluated in vitro using TR-FRET assay with white 384-well low volume microplate (Greiner Bio-One). CDK4/Cyclin D1 catalyzed phosphorylation of peptide in the presence and absence of compounds was measured and used in IC50 determination. Recombinant protein complex CDK4/Cyclin D1, expressed from insect cell, was purchased from ProQinase. Testing compounds were dissolved in DMSO at 1 mM and tested in 9-dose IC50 mode. The reaction mixture was prepared by mixing CDK4/CyclinD1 (1 nM final), ULight-4E-BP1 (100 nM final, Perkinelmer, TRF0128-D), and ATP (2 mM final) in assay buffer (20 mM of HEPES pH 7.4, 1 mM of EGTA, 0.05% BSA, 0.005% Tween 20, and 1 mM TCEP). The compound of interest in DMSO was added to each well in 3-fold serial dilution by the dispenser (TECAN D300E) to make a 9.9 μL of reaction mixture. After 20 minutes preincubation at room temperature, 0.1 μL MgCl2 (10 mM final) was added to initiate the reaction. Following a 45 minute incubation at 37° C., the reaction was stopped by addition of 2 μL of quenching buffer consisting of Lance detection buffer (Perkinelmer CR97-100C), LANCE Ultra Europium-anti-P-4E-BP1 (Perkinelmer, TRF0216-D), EDTA, and incubated at room temperature for additional 60 minutes in dark. The reaction signal was measured by Envision multimode plate reader (PerkinElmer, 2102-0010). IC50 values were determined by fitting the data to the standard 4 parameters with Hill Slope using GraphPad Prism software.

pIC50: −log10 of the molar value.

What is called pIC50 is −log10 of the IC50, conventionally taken in molar units. On to `CCC12CCCN1C(=O)c1cc(-c3nc(NC4CCN(S(C)(=O)=O)CC4)ncc3F)sc12` (stereo not drawn) [Example 15, 8a-Ethyl-2-[5-fluoro-2-[(1-methylsulfonylpiperidin-4-yl)amino]pyrimidin-4-yl]-7,8-dihydro-6H-thieno[2,3-a]pyrrolizin-4-one], for which the negative logarithm of the IC50 (pIC50) in the test with pRB in OVCAR3 cells, on CDK2/Cyclin E2 and on CDK4/Cyclin D1 was at least 7.00 each time.
Take `CCC12CCCN1C(=O)c1cc(-c3nc(NC4CCN(S(C)(=O)=O)CC4)ncc3C)sc12` (stereo not drawn) [Example 16, 8a-Ethyl-2-[5-methyl-2-[(1-methylsulfonylpiperidin-4-yl)amino]pyrimidin-4-yl]-7,8-dihydro-6H-thieno[2,3-a]pyrrolizin-4-one]: the pIC50 in the test with pRB in OVCAR3 cells, on CDK2/Cyclin E2 and on CDK4/Cyclin D1 was at least 7.00 in each case.
As for `CS(=O)(=O)N1CCC(Nc2ncc(C(F)(F)F)c(-c3cc4c(s3)C3(CO)CCCN3C4=O)n2)CC1` (stereo not drawn) [Example 17, 8a-(Hydroxymethyl)-2-(2-((1-(methylsulfonyl)piperidin-4-yl)amino)-5-(trifluoromethyl)pyrimidin-4-yl)-6,7,8,8a-tetrahydro-4H-thieno[2,3-a]pyrrolizin-4-one], the pIC50 is 6.30 to 7.00 in the test on pRB in OVCAR3 cells, at least 7.00 on CDK2/Cyclin E2 and at least 7.00 at CDK4/Cyclin D1.
As to `CS(=O)(=O)N1CCC(Nc2ncc(C(F)(F)F)c(-c3cc4c(s3)C3(CF)CCCN3C4=O)n2)CC1` (stereo not drawn) [Example 18, 8a-(Fluoromethyl)-2-(2-((1-(methylsulfonyl)piperidin-4-yl)amino)-5-(trifluoromethyl)pyrimidin-4-yl)-6,7,8,8a-tetrahydro-4H-thieno[2,3-a]pyrrolizin-4-one], the figures for the pIC50 in the test with pRB in OVCAR3 cells, on CDK2/Cyclin E2 and on CDK4/Cyclin D1 were 6.30 to 7.00, at least 7.00 and at least 7.00, respectively.
Take `CS(=O)(=O)N1CCC(Nc2ncc(C(F)(F)F)c(-c3cc4c(s3)C3(CCF)CCCN3C4=O)n2)CC1` (stereo not drawn) [Example 19, 8a-(2-Fluoroethyl)-2-(2-((1-(methylsulfonyl)piperidin-4-yl)amino)-5-(trifluoromethyl)pyrimidin-4-yl)-6,7,8,8a-tetrahydro-4H-thieno[2,3-a]pyrrolizin-4-one]: the pIC50 in the test on pRB in OVCAR3 cells, on CDK2/Cyclin E2 and at CDK4/Cyclin D1 was at least 7.00 each time.
On to `CC12CCCN1C(=O)c1cc(-c3nc(NC4CCN(S(C)(=O)=O)CC4)ncc3C(F)(F)F)sc12` (stereo not drawn) [Example 20, 8a-Methyl-2-(2-((1-(methylsulfonyl)piperidin-4-yl)amino)-5-(trifluoromethyl)pyrimidin-4-yl)-6,7,8,8a-tetrahydro-4H-thieno[2,3-a]pyrrolizin-4-one], for which the pIC50 in the test with pRB in OVCAR3 cells, at CDK2/Cyclin E2 and on CDK4/Cyclin D1 was at least 7.00 in each case.
`CS(=O)(=O)N1CCC(Nc2ncc(C(F)(F)F)c(-c3cc4c(s3)C3CCCN3C4=O)n2)CC1` (stereo not drawn) [Example 21, 2-(2-((1-(Methylsulfonyl)piperidin-4-yl)amino)-5-(trifluoromethyl)pyrimidin-4-yl)-6,7,8,8a-tetrahydro-4H-thieno[2,3-a]pyrrolizin-4-one]: the pIC50 was 6.30 to 7.00 in the test with pRB in OVCAR3 cells, at least 7.00 at CDK2/Cyclin E2 and at least 7.00 at CDK4/Cyclin D1.
In the case of `CS(=O)(=O)N1CCC(Nc2ncc(C(F)(F)F)c(-c3cc4c(s3)C3(C5CC5)CCCN3C4=O)n2)CC1` (stereo not drawn) [Example 22, 8a-Cyclopropyl-2-(2-((1-(methylsulfonyl)piperidin-4-yl)amino)-5-(trifluoromethyl)pyrimidin-4-yl)-6,7,8,8a-tetrahydro-4H-thieno[2,3-a]pyrrolizin-4-one], the pIC50 in the test with pRB in OVCAR3 cells, at CDK2/Cyclin E2 and on CDK4/Cyclin D1 was at least 7.00 each time.
For the compound `CS(=O)(=O)N1CCC(Nc2ncc(C(F)(F)F)c(-c3cc4c(s3)C3(C5CCC5)CCCN3C4=O)n2)CC1` (stereo not drawn) [Example 23, 8a-Cyclobutyl-2-(2-((1-(methylsulfonyl)piperidin-4-yl)amino)-5-(trifluoromethyl)pyrimidin-4-yl)-6,7,8,8a-tetrahydro-4H-thieno[2,3-a]pyrrolizin-4-one], the pIC50 in the test on pRB in OVCAR3 cells is 6.30 to 7.00; at CDK2/Cyclin E2, at least 7.00; at CDK4/Cyclin D1, at least 7.00.
On to `CS(=O)(=O)N1CCC(Nc2ncc(C(F)(F)F)c(-c3cc4c(s3)C3(C5CC(F)(F)C5)CCCN3C4=O)n2)CC1` (stereo not drawn) [Example 24, 8a-(3,3-Difluorocyclobutyl)-2-(2-((1-(methylsulfonyl)piperidin-4-yl)amino)-5-(trifluoromethyl)pyrimidin-4-yl)-6,7,8,8a-tetrahydro-4H-thieno[2,3-a]pyrrolizin-4-one], for which the pIC50 in the test with pRB in OVCAR3 cells was 6.30 to 7.00; on CDK2/Cyclin E2 it was at least 7.00; on CDK4/Cyclin D1, at least 7.00.
For `CS(=O)(=O)N1CCC(Nc2ncc(C(F)(F)F)c(-c3cc4c(s3)C3(C5CC(O)C5)CCCN3C4=O)n2)CC1` (stereo not drawn) [Example 25, 8a-(3-Hydroxycyclobutyl)-2-(2-((1-(methylsulfonyl)piperidin-4-yl)amino)-5-(trifluoromethyl)pyrimidin-4-yl)-6,7,8,8a-tetrahydro-4H-thieno[2,3-a]pyrrolizin-4-one], the pIC50 in the test on pRB in OVCAR3 cells, at CDK2/Cyclin E2 and on CDK4/Cyclin D1 was at least 7.00 each time.
Take `CS(=O)(=O)N1CCC(Nc2ncc(C(F)(F)F)c(-c3cc4c(s3)C3(C5CC(F)C5)CCCN3C4=O)n2)CC1` (stereo not drawn) [Example 26, 8a-(3-Fluorocyclobutyl)-2-(2-((1-(methylsulfonyl)piperidin-4-yl)amino)-5-(trifluoromethyl)pyrimidin-4-yl)-6,7,8,8a-tetrahydro-4H-thieno[2,3-a]pyrrolizin-4-one]: the values for the pIC50 in the test with pRB in OVCAR3 cells, at CDK2/Cyclin E2 and on CDK4/Cyclin D1 were 6.30 to 7.00, at least 7.00 and at least 7.00, respectively.
`CCC12CCCN1C(=O)c1cc(-c3nc(NC4CCN(S(C)(=O)=O)CC4)ncc3Cl)sc12` (stereo not drawn) [Example 27, 2-(5-Chloro-2-((1-(methylsulfonyl)piperidin-4-yl)amino)pyrimidin-4-yl)-8a-ethyl-6,7,8,8a-tetrahydro-4H-thieno[2,3-a]pyrrolizin-4-one]: the pIC50 in the test with pRB in OVCAR3 cells, at CDK2/Cyclin E2 and at CDK4/Cyclin D1 was at least 7.00 in each case.
